The target of assay [1] is T1, succinate dehydrogenase/complex II (SDH) (Rattus norvegicus, UniProt P21913+Q641Z9+Q6PCT8+Q920L2).
T1 construct: freshly isolated muscle mitochondria were assayed; from tissue; host or cells: rat skeletal muscle mitochondria (Wistar, Harlan Laboratories)
Description: High-throughput screen: ROS production from succinate dehydrogenase/complex II (SDH). In kind it is biochemical. The following applies: for inhibition at 2.5 µM: Table 7.

Assay [2] has as its target T2, glycerol-3-phosphate dehydrogenase (GPDH) (Rattus norvegicus, UniProt P35571).
T2 construct: The activity of GPDH in intact mitochondria (0.3 mg/mL) was measured; from tissue; host or cells: rat skeletal muscle mitochondria (Wistar, Harlan Laboratories)
T2 sequence (P35571 43-727): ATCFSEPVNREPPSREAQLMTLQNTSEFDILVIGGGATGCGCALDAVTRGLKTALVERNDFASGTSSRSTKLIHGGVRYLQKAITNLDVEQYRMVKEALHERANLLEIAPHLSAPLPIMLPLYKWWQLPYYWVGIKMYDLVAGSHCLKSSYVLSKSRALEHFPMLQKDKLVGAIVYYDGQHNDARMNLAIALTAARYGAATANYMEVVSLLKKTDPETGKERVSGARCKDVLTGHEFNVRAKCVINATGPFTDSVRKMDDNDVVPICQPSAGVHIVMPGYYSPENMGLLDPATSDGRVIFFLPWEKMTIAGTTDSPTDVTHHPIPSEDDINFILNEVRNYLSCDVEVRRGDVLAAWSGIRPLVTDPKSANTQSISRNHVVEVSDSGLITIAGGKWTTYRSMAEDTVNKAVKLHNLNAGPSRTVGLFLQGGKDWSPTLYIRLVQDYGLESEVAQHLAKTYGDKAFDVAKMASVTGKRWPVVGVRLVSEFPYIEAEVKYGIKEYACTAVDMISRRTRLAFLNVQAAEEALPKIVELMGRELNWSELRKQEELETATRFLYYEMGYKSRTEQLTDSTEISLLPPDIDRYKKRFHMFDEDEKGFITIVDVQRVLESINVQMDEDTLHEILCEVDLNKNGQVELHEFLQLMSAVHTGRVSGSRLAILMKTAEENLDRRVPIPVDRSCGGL
Description: High-throughput screen: ROS production from glycerol-3-phosphate dehydrogenase (GPDH). In kind it is biochemical. The arrangement: inhibition: dose or concentration left out as unconfirmed. As to conditions: for inhibition: Table 7.

Assay [3] deals with mitochondrial membrane potential (ΔΨm). Description: Membrane potential (ΔΨm) counterscreen with TMRM. The following applies: malate, nigericin. In general terms: Counterscreens check selectivity or assay interference.
The target in assay [4] is T3, flavin binding site of complex I (IF) (Rattus norvegicus, UniProt Q5XIH3).
T3 construct: freshly isolated muscle mitochondria were assayed; from tissue; host or cells: rat skeletal muscle mitochondria (Wistar, Harlan Laboratories)
The experiment in a line: High-throughput screen: ROS production from flavin binding site of complex I (IF). The format is biochemical.

Assay [5] relates to ubiquinone binding site of complex I (IQ). The experiment in a line: High-throughput screen: ROS production from ubiquinone binding site of complex I (IQ), isolated skeletal muscle mitochondria. As to conditions: percent change in ROS from DMSO controls. The format is biochemical, rat.
Description: Skeletal muscle mitochondria were isolated from 5-8 week old female Wistar rats (Harlan Laboratories). Minced muscle was homogenized in buffer containing bacterial protease Type VIII prior to differential centrifugation to separate mitochondria from other tissue components. Unless otherwise stated, freshly isolated muscle mitochondria were assayed in buffer containing 120 mM KCl, 5 mM HEPES, 1 mM EGTA, 0.3% (w/v) bovine serum albumin. Where indicated, CaCl2 was added to yield a final free concentration of 250 nM calcium at pH 7.0 at 37° C.
Compounds (10 mM in DMSO) were randomly selected from a library of 24,000 compounds obtained from ChemBridge and curated by the lab of Robert Hughes at the Buck Institute. Master screening plates were prepared using a Biomek FX liquid handling workstation (Beckman) to transfer 1 μL of each compound into individual wells on 96-well storage plates (80 compounds per plate). Master plates were sealed with foil and stored at −80° C. Just prior to use, plates were brought to room temperature and diluted 300-fold with standard buffer (13.3X=33.3 μM). To monitor the performance of each assay throughout screening and to provide intra-plate normalization reference points, DMSO negative controls and known mitochondrial inhibitor positive controls were included on each Master compound plate.
Total amounts of superoxide and H2O2 production were determined fluorometrically as H2O2, without distinguishing between them, in the presence of exogenous superoxide dismutase (25 units/mL final), horseradish peroxidase (1 unit/mL final), and Amplex UltraRed (25 μM final) as described (Affourtit, C. et al. (2012) Measurement of proton leak and electron leak in isolated mitochondria. Methods Mol. Biol. 810: 165-82). Just prior to use, a bulk 3.3X solution was made in standard buffer and distributed into a 2 mL deep well 96-well transfer plate.
To assess the effects of a compound on ROS production from the ubiquinone binding site of complex I (IQ), Start Solution containing 5 mM succinate was distributed into standard 96-well transfer plates. A Biomek FX workstation was programmed to dispense solutions into black 96-well assay plates. Solutions were dispensed to all assay plates in the following order: ROS Detection solution described in Example 3, Mitochondria solution described in Example 1 to a final concentration of 0.1 mg/ml, and Compound dilutions described in Example 2. Duplicate assay plates were made and each was initiated by the addition of 3.3X Start solution containing 5 mM succinate. Plates were incubated in the dark at room temperature for 30-40 minutes before acquiring endpoint fluorescence using a Victor 3V plate reader (Perkin Elmer) equipped with 550/590 nm excitation/emission filters.
The fluorescence values in each well were scaled as the percent change from the intra-plate DMSO controls with the appropriate inhibitor positive controls defined as −100%. Following initial scaling, intra-plate normalized values were subjected to Tukey's two-way median polish to remove row and column dependent positional effects (Malo et al, 2006).
The target in assay [6] is T4, outer ubiquinone binding site of complex III (IIIQO) (Rattus norvegicus, UniProt P00159+P20788).
T4 construct: freshly isolated muscle mitochondria were assayed; from tissue; host or cells: rat skeletal muscle mitochondria (Wistar, Harlan Laboratories)
The experiment in a line: High-throughput screen: ROS production from outer ubiquinone binding site of complex III (IIIQO). As to conditions: percent change in ROS from DMSO controls. The format is biochemical.

The mark [7] stands for this setting: percent change in ROS from DMSO controls.
Where [8] appears, read: Table 8, percent change in ROS from DMSO controls.
Setting [9] is: Table 9, percent change in ROS from DMSO controls.
The mark [10] stands for this setting: Table 3, 5 mM glutamate, 5 mM malate, 4 μM rotenone, compounds 2.5 μM, percent change from DMSO, positive control −100%, read-out: % Reduction in ROS production (IF).
Setting [11] is: Table 7, percent change in ROS from DMSO controls, read-out: IF.

Where two headings read alike, the source gives them in different places.

T1 sequence (Q920L2 35-656): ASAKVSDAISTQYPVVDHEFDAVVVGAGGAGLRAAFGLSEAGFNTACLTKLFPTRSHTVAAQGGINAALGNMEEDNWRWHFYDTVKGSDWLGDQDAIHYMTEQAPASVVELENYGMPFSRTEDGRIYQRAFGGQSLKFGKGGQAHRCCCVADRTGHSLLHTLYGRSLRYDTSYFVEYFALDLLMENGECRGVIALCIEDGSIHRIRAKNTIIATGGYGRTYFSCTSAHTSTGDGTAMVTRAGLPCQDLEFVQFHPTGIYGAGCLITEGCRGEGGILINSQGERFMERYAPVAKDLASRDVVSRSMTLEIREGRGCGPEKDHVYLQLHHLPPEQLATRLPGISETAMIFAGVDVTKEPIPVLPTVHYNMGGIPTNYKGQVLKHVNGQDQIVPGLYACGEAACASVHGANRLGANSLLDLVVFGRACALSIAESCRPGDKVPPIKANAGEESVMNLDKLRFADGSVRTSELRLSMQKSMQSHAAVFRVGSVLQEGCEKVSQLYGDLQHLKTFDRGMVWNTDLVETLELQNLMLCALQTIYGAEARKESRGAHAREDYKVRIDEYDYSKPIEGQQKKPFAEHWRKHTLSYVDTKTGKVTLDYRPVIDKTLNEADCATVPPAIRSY
T1 sequence (P21913 31-282): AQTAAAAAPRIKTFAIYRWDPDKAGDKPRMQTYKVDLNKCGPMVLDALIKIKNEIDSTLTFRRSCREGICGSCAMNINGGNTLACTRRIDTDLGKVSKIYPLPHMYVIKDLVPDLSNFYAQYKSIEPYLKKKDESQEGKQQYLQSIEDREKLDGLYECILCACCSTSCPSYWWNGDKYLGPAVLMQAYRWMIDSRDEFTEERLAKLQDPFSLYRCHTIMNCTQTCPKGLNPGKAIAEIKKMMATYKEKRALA
T1 sequence (Q641Z9 30-169 limits assumed): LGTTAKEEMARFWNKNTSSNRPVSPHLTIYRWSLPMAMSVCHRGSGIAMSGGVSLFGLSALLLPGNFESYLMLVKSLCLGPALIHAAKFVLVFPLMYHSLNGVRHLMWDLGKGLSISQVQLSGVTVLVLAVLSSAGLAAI
T1 sequence (Q6PCT8 57-159): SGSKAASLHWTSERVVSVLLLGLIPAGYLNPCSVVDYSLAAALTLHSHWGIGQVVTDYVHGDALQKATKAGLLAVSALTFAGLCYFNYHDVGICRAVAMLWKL
T3 sequence (Q5XIH3 21-464 limits assumed, one chain of several): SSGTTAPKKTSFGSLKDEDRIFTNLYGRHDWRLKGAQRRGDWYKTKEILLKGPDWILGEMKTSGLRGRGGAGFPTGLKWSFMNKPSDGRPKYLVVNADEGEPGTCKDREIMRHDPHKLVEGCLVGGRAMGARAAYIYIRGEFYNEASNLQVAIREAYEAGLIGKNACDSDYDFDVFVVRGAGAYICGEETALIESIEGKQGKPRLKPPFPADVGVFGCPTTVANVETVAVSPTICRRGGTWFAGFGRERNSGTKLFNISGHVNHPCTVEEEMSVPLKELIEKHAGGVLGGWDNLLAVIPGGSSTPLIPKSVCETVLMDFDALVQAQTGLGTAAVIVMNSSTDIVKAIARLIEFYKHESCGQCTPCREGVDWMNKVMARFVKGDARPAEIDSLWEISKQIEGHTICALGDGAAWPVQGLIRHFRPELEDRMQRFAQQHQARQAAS

In assay [1], `Cc1cc(C)c(OCC(O)CNC(C)(C)CC(C)(C)C)c(C)c1.Cl` (stereo not drawn) [Compound 14] gave an SDH of −9.6. In addition, the GPDH in assay [2] is given as −3.9. The ΔΨm in assay [3] (Table 8, glutamate) was −0.7; in assay [3] (Table 9, glutamate), −0.7. For the same compound, the “% Reduction in ROS production (IF)” value in assay [4] is recorded as −37.7%. Besides, the IF in assay [4] is on record as −37.7. Besides, the IQ in assay [5] (Table 7), in assay [5] (Table 8) and in assay [5] (Table 9) was −4.7 in each case. In addition, the IIIQO in assay [6] (Table 7), in assay [6] (Table 8) and in assay [6] (Table 9) was −2.9 throughout.

With `CCCN(CCO)Cc1ccc2c(c1)c1ccccc1n2CC` [Compound 15], the inhibition at 2.5 µM in assay [1] (setting [7]) was 2.7%; in assay [4] (setting [10]), 27.6%; in assay [4] (setting [11]), 27.6%; in assay [6] (Table 7, read-out: IIIQO), 7.5%; in assay [6] (Table 9, read-out: IIIQo), 7.5%. Further, the SDH in assay [1] (setting [8]) and in assay [1] (setting [9]) was −2.7 in each case. Moreover, the inhibition in assay [2] (setting [7]) came to 2.5%. The GPDH in assay [2] (setting [8]) and in assay [2] (setting [9]) was −2.5 throughout. In addition, the ΔΨm was −0.9 in assay [3] (Table 8, glutamate) and −0.9 in assay [3] (Table 9, glutamate). The IF in assay [4] (setting [8]) and in assay [4] (setting [9]) was −27.6 each time. In addition, the IQ in assay [5] (Table 7), in assay [5] (Table 8) and in assay [5] (Table 9) was −0.1 each time. In addition, the IIIQO in assay [6] (Table 8) is −7.5.

With `COc1ccccc1/C=C/c1nc(O)nc(O)c1[N+](=O)[O-]` [Compound 16], the inhibition at 2.5 µM is -4.2% in assay [1] (setting [7]); 26.7% in assay [4] (setting [10]); 26.7% in assay [4] (setting [11]); -6.6% in assay [6] (Table 7, read-out: IIIQO); -6.6% in assay [6] (Table 9, read-out: IIIQo). The SDH in assay [1] (setting [8]) and in assay [1] (setting [9]) was 4.2 throughout. Further, in assay [2] (setting [7]), the inhibition amounted to 0.6%. The GPDH in assay [2] (setting [8]) and in assay [2] (setting [9]) was −0.6 each time. The ΔΨm is −0.3 in assay [3] (Table 8, glutamate) and −0.3 in assay [3] (Table 9, glutamate). The IF in assay [4] (setting [8]) and in assay [4] (setting [9]) was −26.7 each time. In addition, the IQ in assay [5] (Table 7), in assay [5] (Table 8) and in assay [5] (Table 9) was −5.4 in each case. For the same compound, in assay [6] (Table 8), the IIIQO was 6.6.

For `COc1cccc(/C=C/C(=O)c2c(O)cc(C)oc2=O)c1O` [Compound 17], the inhibition at 2.5 µM stood at 3.4% in assay [1] (setting [7]); 26% in assay [4] (setting [10]); 26% in assay [4] (setting [11]); 6% in assay [6] (Table 7, read-out: IIIQO); 6% in assay [6] (Table 9, read-out: IIIQo). In addition, the SDH in assay [1] (setting [8]) and in assay [1] (setting [9]) was −3.4 each time. Moreover, the inhibition in assay [2] (setting [7]) is 3.6%. Moreover, the GPDH in assay [2] (setting [8]) and in assay [2] (setting [9]) was −3.6 each time. Further, the ΔΨm in assay [3] (Table 8, glutamate) came to 0.3; in assay [3] (Table 9, glutamate), 0.3. Besides, the IF in assay [4] (setting [8]) and in assay [4] (setting [9]) was −26.0 in each case. In addition, the IQ in assay [5] (Table 7), in assay [5] (Table 8) and in assay [5] (Table 9) was −7.4 in each case. In addition, the IIIQO in assay [6] (Table 8) is reported as −6.0.

Take `O=C(Nc1ccccc1C(=O)O)c1ccccc1` [Compound 18]: the inhibition at 2.5 µM in assay [1] (setting [7]) was 0.3%; in assay [4] (setting [10]), 25.8%; in assay [4] (setting [11]), 25.8%; in assay [6] (Table 7, read-out: IIIQO) it was -5.4%; in assay [6] (Table 9, read-out: IIIQo), -5.4%. For the same compound, the SDH in assay [1] (setting [8]) and in assay [1] (setting [9]) was −0.3 throughout. In addition, in assay [2] (setting [7]), the inhibition amounted to 0.6%. Further, the GPDH in assay [2] (setting [8]) and in assay [2] (setting [9]) was −0.6 each time. Further, the ΔΨm in assay [3] (Table 8, glutamate) is −0.7; in assay [3] (Table 9, glutamate), −0.7. Moreover, the IF in assay [4] (setting [8]) and in assay [4] (setting [9]) was −25.8 in each case. For the same compound, the IQ in assay [5] (Table 7), in assay [5] (Table 8) and in assay [5] (Table 9) was −1.0 in each case. In assay [6] (Table 8), this compound registered an IIIQO of 5.4.

As to `O=C(Nc1ccccc1F)[C@@H]1C2C=CC(C2)[C@@H]1C(=O)O` (stereo partly drawn) [Compound 20], the inhibition at 2.5 µM was 0.7% in assay [1] (setting [7]); 24% in assay [4] (setting [10]); 24% in assay [4] (setting [11]); -1.2% in assay [6] (Table 7, read-out: IIIQO); -1.2% in assay [6] (Table 9, read-out: IIIQo). Moreover, the SDH in assay [1] (setting [8]) and in assay [1] (setting [9]) was −0.7 in each case. Further, the inhibition in assay [2] (setting [7]) stood at 1.7%. Moreover, the GPDH in assay [2] (setting [8]) and in assay [2] (setting [9]) was −1.7 in each case. The ΔΨm in assay [3] (Table 8, glutamate) is reported as −0.3; in assay [3] (Table 9, glutamate), −0.3. The IF in assay [4] (setting [8]) and in assay [4] (setting [9]) was −24.0 throughout. In addition, the IQ in assay [5] (Table 7), in assay [5] (Table 8) and in assay [5] (Table 9) was 0.2 each time. In assay [6] (Table 8), this compound displayed an IIIQO of 1.2.

Take `Cc1ccc(C(C)C)c(OCC(O)CN2CCN(Cc3ccccc3)CC2)c1.Cl.Cl` (stereo not drawn) [Compound 21]: the inhibition at 2.5 µM in assay [1] (setting [7]) is -1.7%; in assay [4] (setting [10]), 23%; in assay [4] (setting [11]), 23%; in assay [6] (Table 7, read-out: IIIQO) it was 9.9%; in assay [6] (Table 9, read-out: IIIQo) it was 9.9%. Further, the SDH in assay [1] (setting [8]) and in assay [1] (setting [9]) was 1.7 throughout. In assay [2] (setting [7]), the inhibition is 1.8%. Also, the GPDH in assay [2] (setting [8]) and in assay [2] (setting [9]) was −1.8 throughout. The ΔΨm in assay [3] (Table 8, glutamate) is listed as −0.3; in assay [3] (Table 9, glutamate), −0.3. Moreover, the IF in assay [4] (setting [8]) and in assay [4] (setting [9]) was −23.0 each time. For the same compound, the IQ in assay [5] (Table 7), in assay [5] (Table 8) and in assay [5] (Table 9) was 0.0 in each case. In addition, the IIIQO in assay [6] (Table 8) is listed as −9.9.

`CCN1CCN(C2CCC(C(C)(C)C)CC2)CC1` (stereo not drawn) [Compound 22]: the inhibition at 2.5 µM in assay [1] (setting [7]) is -5.5%; in assay [4] (setting [10]) it was 22.1%; in assay [4] (setting [11]), 22.1%; in assay [6] (Table 7, read-out: IIIQO) it was 6.2%; in assay [6] (Table 9, read-out: IIIQo), 6.2%. Also, the SDH in assay [1] (setting [8]) and in assay [1] (setting [9]) was 5.5 throughout. Moreover, the inhibition in assay [2] (setting [7]) was 2.6%. Besides, the GPDH in assay [2] (setting [8]) and in assay [2] (setting [9]) was −2.6 throughout. Further, the ΔΨm is given as −0.9 in assay [3] (Table 8, glutamate) and −0.9 in assay [3] (Table 9, glutamate). For the same compound, the IF in assay [4] (setting [8]) and in assay [4] (setting [9]) was −22.1 in each case. In addition, the IQ in assay [5] (Table 7), in assay [5] (Table 8) and in assay [5] (Table 9) was −0.4 each time. Further, the IIIQO in assay [6] (Table 8) is given as −6.2.

Turning to `CN(C)CCN(Cc1ccccc1)Cc1ccccc1Br` [Compound 23], the inhibition at 2.5 µM in assay [1] (setting [7]) is -1.7%; in assay [4] (setting [10]), 21.1%; in assay [4] (setting [11]) it was 21.1%; in assay [6] (Table 7, read-out: IIIQO), 8.8%; in assay [6] (Table 9, read-out: IIIQo) it was 8.8%. The SDH in assay [1] (setting [8]) and in assay [1] (setting [9]) was 1.7 in each case. Besides, the inhibition in assay [2] (setting [7]) is 1%. Besides, the GPDH in assay [2] (setting [8]) and in assay [2] (setting [9]) was −1.0 throughout. Besides, the ΔΨm is on record as −1.5 in assay [3] (Table 8, glutamate) and −1.5 in assay [3] (Table 9, glutamate). In addition, the IF in assay [4] (setting [8]) and in assay [4] (setting [9]) was −21.1 throughout. For the same compound, the IQ in assay [5] (Table 7), in assay [5] (Table 8) and in assay [5] (Table 9) was −2.7 throughout. The compound also returned an IIIQO in assay [6] (Table 8) of −8.8.
